{
  "source": "ChEMBL document CHEMBL4190183",
  "about": "(Medchemcomm, 2016)",
  "key": {"DNA ligase 1 [1]": {"molecular_target": "T1, DNA ligase 1 (Homo sapiens, UniProt P18858)", "T1 sequence (P18858 whole entry)": "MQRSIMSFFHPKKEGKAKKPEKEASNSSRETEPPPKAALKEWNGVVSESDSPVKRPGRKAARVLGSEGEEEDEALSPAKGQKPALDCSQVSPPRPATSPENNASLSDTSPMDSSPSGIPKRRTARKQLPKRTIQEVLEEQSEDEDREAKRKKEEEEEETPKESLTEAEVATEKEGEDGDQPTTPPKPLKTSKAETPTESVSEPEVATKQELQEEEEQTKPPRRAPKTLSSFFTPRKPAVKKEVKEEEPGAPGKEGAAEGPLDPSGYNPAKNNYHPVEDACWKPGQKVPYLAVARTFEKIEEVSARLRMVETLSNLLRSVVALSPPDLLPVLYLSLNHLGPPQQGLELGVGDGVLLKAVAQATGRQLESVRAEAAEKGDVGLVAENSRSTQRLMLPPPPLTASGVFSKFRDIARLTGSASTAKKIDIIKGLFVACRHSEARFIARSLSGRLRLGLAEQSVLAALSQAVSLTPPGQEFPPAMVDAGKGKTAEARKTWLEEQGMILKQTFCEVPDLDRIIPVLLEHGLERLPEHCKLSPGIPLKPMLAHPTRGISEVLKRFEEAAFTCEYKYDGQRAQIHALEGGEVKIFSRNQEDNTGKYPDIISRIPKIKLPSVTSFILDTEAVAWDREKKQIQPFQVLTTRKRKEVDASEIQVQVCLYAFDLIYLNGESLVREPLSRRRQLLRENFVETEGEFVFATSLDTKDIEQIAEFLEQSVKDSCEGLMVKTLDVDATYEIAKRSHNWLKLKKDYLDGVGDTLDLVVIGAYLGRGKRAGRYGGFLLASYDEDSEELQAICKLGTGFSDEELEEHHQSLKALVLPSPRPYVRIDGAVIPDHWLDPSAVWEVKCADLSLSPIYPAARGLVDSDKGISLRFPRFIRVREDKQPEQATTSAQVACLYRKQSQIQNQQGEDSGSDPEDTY", "test": "Inhibition of human DNA ligase 1 expressed in Escherichia coli BL21(DE3)RP cells assessed as reduction in fluorescently labelled ds nicked DNA substrate ligation at 100 uM after 30 mins by urea gel based imaging method relative to control"}, "DNA ligase 1 [2]": {"molecular_target": "T1, DNA ligase 1", "test": "Binding affinity to human full length N-terminal His-tagged DNA ligase 1 expressed in Escherichia coli BL21(DE3)RP cells at 10 uM by fluorescence spectroscopic analysis"}, "HepG2 [3]": {"system": "HepG2", "test": "Cytotoxicity against human HepG2 cells assessed as cell death at 10 uM after 48 hrs by MTT assay relative to control", "format": "functional"}, "A549": {"system": "A549", "test": "Cytotoxicity against human A549 cells assessed as cell death at 10 uM after 48 hrs by MTT assay relative to control", "format": "functional"}, "HCT-116": {"system": "HCT-116", "test": "Cytotoxicity against human HCT116 cells assessed as cell death at 10 uM after 48 hrs by MTT assay relative to control", "format": "functional"}, "DLD-1": {"system": "DLD-1", "test": "Cytotoxicity against human DLD1 cells assessed as cell death at 10 uM after 48 hrs by MTT assay relative to control", "format": "functional"}, "MDA-MB-231": {"system": "MDA-MB-231", "test": "Cytotoxicity against human MDA-MB-231 cells assessed as cell death at 10 uM after 48 hrs by MTT assay relative to control", "format": "functional"}, "HEK293": {"system": "HEK293", "test": "Cytotoxicity against HEK293 cells assessed as cell death at 10 uM after 48 hrs by MTT assay relative to control", "format": "cell-based", "conditions": "human, hek293, 48 h"}, "DNA ligase 1 [4]": {"molecular_target": "T1, DNA ligase 1", "test": "Inhibition of human DNA ligase 1 expressed in Escherichia coli BL21(DE3)RP cells assessed as reduction in nick sealing activity using fluorescently labelled ds nicked DNA as substrate after 30 mins by urea gel based imaging method"}, "DNA ligase 1 [5]": {"molecular_target": "T1, DNA ligase 1", "test": "Binding affinity to human full length N-terminal His-tagged DNA ligase 1 expressed in Escherichia coli BL21(DE3)RP cells at 1.25 to 5 uM by CD spectroscopic method"}, "DNA ligase 1 [6]": {"molecular_target": "T1, DNA ligase 1", "test": "Binding affinity to human N-terminal His-tagged DNA ligase 1 DBD expressed in Escherichia coli BL21(DE3)RP cells at 1.25 to 5 uM by CD spectroscopic method"}, "DNA ligase 1 [7]": {"molecular_target": "T1, DNA ligase 1", "test": "Binding affinity to human N-terminal His-tagged DNA ligase 1 DBD expressed in Escherichia coli BL21(DE3)RP cells at 10 uM by fluorescence spectroscopic analysis"}, "DNA ligase 1 [8]": {"molecular_target": "T1, DNA ligase 1", "test": "Binding affinity to human full length N-terminal His-tagged DNA ligase 1 expressed in Escherichia coli BL21(DE3)RP cells assessed as destabilization of enzyme-nicked oligo DNA complex after 2 hrs by electrophoretic mobility shift assay"}, "DNA [9]": {"system": "DNA", "test": "Induction of linearized Escherichia coli pUC18 DNA intercalation up to 600 uM after 30 mins by agarose gel electrophoresis method", "format": "nucleic-acid assay"}, "DNA [10]": {"system": "DNA", "test": "Inhibition of EtBr binding to Escherichia coli pUC18 DNA up to 400 uM after 30 mins by fluorescence spectroscopic analysis", "format": "nucleic-acid assay"}, "HepG2 [11]": {"system": "HepG2", "test": "Cytotoxicity against human HepG2 cells assessed as decrease in cell viability after 48 hrs by MTT assay", "format": "functional, cell-based"}, "HepG2 [12]": {"system": "HepG2", "test": "Anticlonogenic activity against human HepG2 cells at >= 10 uM incubated for 48 hrs measured after 10 days by crystal violet staining based microscopy", "format": "functional, cell-based"}, "HepG2 [13]": {"system": "HepG2", "test": "Induction of apoptosis in human HepG2 cells after 48 hrs by Annexin-V/PI staining based flow cytometry", "format": "functional, cell-based"}, "HepG2 [14]": {"system": "HepG2", "test": "Cell cycle arrest in human HepG2 cells assessed as accumulation at G0/G1 phase at 10 uM after 12 hrs by propidium iodide staining based flow cytometry (reference value: 42.7 +/- 1.5%)", "format": "functional"}, "HepG2 [15]": {"system": "HepG2", "test": "Cell cycle arrest in human HepG2 cells assessed as accumulation at G0/G1 phase at 20 uM after 12 hrs by propidium iodide staining based flow cytometry (reference value: 42.7 +/- 1.5%)", "format": "functional"}, "HepG2 [16]": {"system": "HepG2", "test": "Cell cycle arrest in human HepG2 cells assessed as accumulation at G0/G1 phase at 10 uM after 24 hrs by propidium iodide staining based flow cytometry (reference value: 56.8 +/- 1.16%)", "format": "functional"}, "HepG2 [17]": {"system": "HepG2", "test": "Cell cycle arrest in human HepG2 cells assessed as accumulation at G0/G1 phase at 20 uM after 24 hrs by propidium iodide staining based flow cytometry (reference value: 56.8 +/- 1.16%)", "format": "functional"}, "HepG2 [18]": {"system": "HepG2", "test": "Induction of DNA damage in human HepG2 cells assessed as increase in gamma-H2AX expression levels at 10 to 20 uM after 48 hrs by Western blot analysis", "format": "functional, cell-based"}, "HepG2 [19]": {"system": "HepG2", "test": "Induction of apoptosis in human HepG2 cells assessed as increase in p53 expression levels at 10 to 20 uM after 48 hrs by Western blot analysis", "format": "functional, cell-based"}, "HepG2 [20]": {"system": "HepG2", "test": "Antiproliferative activity against human HepG2 cells assessed as decrease in PCNA expression level at 10 to 20 uM after 48 hrs by Western blot analysis", "format": "functional, cell-based"}, "HepG2 [21]": {"system": "HepG2", "test": "Antimetastatic activity against human HepG2 cells assessed as wound healing at 10 uM after 12 hrs by microscopic method (reference value: 21%)", "format": "functional"}, "HepG2 [22]": {"system": "HepG2", "test": "Antimetastatic activity against human HepG2 cells assessed as wound healing at 10 uM after 18 hrs by microscopic method (reference value: 32%)", "format": "functional"}, "HepG2 [23]": {"system": "HepG2", "test": "Antimetastatic activity against human HepG2 cells assessed as wound healing at 20 uM after 12 hrs by microscopic method (reference value: 21%)", "format": "functional"}, "HepG2 [24]": {"system": "HepG2", "test": "Antimetastatic activity against human HepG2 cells assessed as wound healing at 20 uM after 18 hrs by microscopic method (reference value: 32%)", "format": "functional"}, "HepG2 [25]": {"system": "HepG2", "test": "Synergistic cytotoxicity against human HepG2 cells assessed as induction of cell death at 5 uM after 48 hrs in presence of 0.625 uM doxorubicin by MTT assay", "format": "functional, cell-based"}, "HepG2 [26]": {"system": "HepG2", "test": "Induction of cell death in human HepG2 cells at 5 uM after 48 hrs by MTT assay", "format": "functional, cell-based"}, "[27]": {"test": "Aqueous solubility of the compound in triple distilled water at 1 to 1000 uM after 2 hrs by nephelometric method", "format": "physicochemical"}, "[28]": {"test": "Stability of the compound in simulated gastric fluid at 5 uM at pH 1.2 measured up to 60 mins by LC-MS/MS analysis", "format": "ADME", "conditions": "simulated gi fluid, pH 1.2, 1 h"}, "[29]": {"test": "Stability of the compound in simulated intestinal fluid at 5 uM at pH 6.8 measured up to 120 mins by LC-MS/MS analysis", "format": "ADME", "conditions": "simulated gi fluid, pH 6.8, 2 h"}, "[30]": {"test": "Retention time of the compound by LC-MS/MS analysis", "format": "physicochemical"}, "[31]": {"test": "Protein binding in hamster plasma at 10 uM at pH 7.4 incubated for 30 mins measured after 10 hrs by LC-MS/MS based equilibrium dialysis method", "format": "ADME, cell-free, Cricetulus griseus", "conditions": "chinese hamster, read-out: PPB"}, "Mesocricetus auratus [32]": {"organism": "Mesocricetus auratus", "test": "Half life in hamster liver microsomes at 1 uM by LC-MS/MS analysis", "conditions": "golden Syrian hamster"}, "Mesocricetus auratus [33]": {"organism": "Mesocricetus auratus", "test": "Intrinsic clearance in hamster liver microsomes at 1 uM by LC-MS/MS analysis", "conditions": "golden Syrian hamster"}, "Mesocricetus auratus [34]": {"organism": "Mesocricetus auratus", "test": "Metabolic stability in hamster liver microsomes assessed as parent compound remaining at 1 uM after 60 mins in presence of NADPH by LC-MS/MS analysis", "conditions": "golden Syrian hamster"}, "DNA ligase 1 [35]": {"molecular_target": "T1, DNA ligase 1", "test": "Residual activity of human DNA ligase 1 expressed in Escherichia coli BL21(DE3)RP cells assessed as DNA ligation at 100 uM using fluorescently labelled ds nicked DNA as substrate after 30 mins by urea gel based imaging method relative to control"}},
  "note": "Calls of active or inactive are those of the source. The calls are words filed in the database; no cut-off is given here.",
  "data": [
    {"compound": "CCOC(=O)C1=C(C)NC(=O)NC1c1cc(/C=N/NC(=O)Nc2cccc(OC)c2)c(O)c(C(C)(C)C)c1", "note": "(configuration not stated)", "values": [
      {"measurement": "inhibition", "setting": "DNA ligase 1 [1]", "result": 82.7, "unit": "%"},
      {"measurement": "Activity", "setting": "DNA ligase 1 [2]", "result": "Active"},
      {"measurement": "Activity", "setting": "HepG2 [3]", "result": 52.2, "unit": "%"},
      {"measurement": "Activity", "setting": "A549", "result": 18.1, "unit": "%"},
      {"measurement": "Activity", "setting": "HCT-116", "result": 18.2, "unit": "%"},
      {"measurement": "Activity", "setting": "DLD-1", "result": 29.4, "unit": "%"},
      {"measurement": "Activity", "setting": "MDA-MB-231", "result": 28.4, "unit": "%"},
      {"measurement": "Activity", "setting": "HEK293", "result": 11.7, "unit": "%"},
      {"measurement": "IC50", "setting": "DNA ligase 1 [4]", "result": 12.4, "unit": "µM"},
      {"measurement": "inhibition", "setting": "DNA ligase 1 [4]", "result": "Dose-dependent effect"},
      {"measurement": "Activity", "setting": "DNA ligase 1 [5]", "result": "Active"},
      {"measurement": "Activity", "setting": "DNA ligase 1 [6]", "result": "Active"},
      {"measurement": "Activity", "setting": "DNA ligase 1 [7]", "result": "Active"},
      {"measurement": "Activity", "setting": "DNA ligase 1 [8]", "result": "Dose-dependent effect"},
      {"measurement": "Activity", "setting": "DNA [9]", "result": "inactive"},
      {"measurement": "inhibition", "setting": "DNA [10]", "result": "inactive"},
      {"measurement": "Activity", "setting": "HepG2 [11]", "result": "Dose-dependent effect"},
      {"measurement": "IC50", "setting": "HepG2 [11]; HepG2, 48 h", "result": 10.6, "unit": "µM"},
      {"measurement": "Activity", "setting": "HepG2 [12]", "result": "Active"},
      {"measurement": "Activity", "setting": "HepG2 [13]", "result": "Dose-dependent effect"},
      {"measurement": "Activity", "setting": "HepG2 [14]", "result": 59.1, "unit": "%"},
      {"measurement": "Activity", "setting": "HepG2 [15]", "result": 64, "unit": "%"},
      {"measurement": "Activity", "setting": "HepG2 [16]", "result": 68.1, "unit": "%"},
      {"measurement": "Activity", "setting": "HepG2 [17]", "result": 84.8, "unit": "%"},
      {"measurement": "Activity", "setting": "HepG2 [18]", "result": "Active"},
      {"measurement": "Activity", "setting": "HepG2 [19]", "result": "Active"},
      {"measurement": "Activity", "setting": "HepG2 [20]", "result": "Active"},
      {"measurement": "Activity", "setting": "HepG2 [21]", "result": 11.2, "unit": "%"},
      {"measurement": "Activity", "setting": "HepG2 [22]", "result": 16.4, "unit": "%"},
      {"measurement": "Activity", "setting": "HepG2 [23]", "result": 7.5, "unit": "%"},
      {"measurement": "Activity", "setting": "HepG2 [24]", "result": 5.5, "unit": "%"},
      {"measurement": "Activity", "setting": "HepG2 [25]", "result": "Active"},
      {"measurement": "Activity", "setting": "HepG2 [26]", "result": "Active"},
      {"measurement": "solubility kinetic at 2 h", "setting": "[27]", "result": 30, "unit": "µM"},
      {"measurement": "Stability", "setting": "[28]", "result": "Stable"},
      {"measurement": "Stability", "setting": "[29]", "result": "Stable"},
      {"measurement": "Retention_time", "setting": "[30]", "result": 2.98, "unit": "min"},
      {"measurement": "fraction unbound at 10 h, 10 µM", "setting": "[31]", "result": 0.0098},
      {"measurement": "half-life at 1 µM", "setting": "Mesocricetus auratus [32]", "result": 20.8, "unit": "min"},
      {"measurement": "CLH", "setting": "Mesocricetus auratus [33]", "result": 33.29, "unit": "µL/min/mg"},
      {"measurement": "remaining at 1 h, 1 µM", "setting": "Mesocricetus auratus [34]", "result": 12.9, "unit": "%"},
      {"measurement": "ligation", "setting": "DNA ligase 1 [35]", "result": 17.4, "unit": "%"}
    ]}
  ]
}
